Series [1] addresses RyR2 (Mus musculus, UniProt E9Q401). The series can be described thus: caffeine-induced Ca2+ release in primary hippocampal neurons. It is filed as cell-based. Further details: representative images of 14-d cultured hippocampal neurons stimulated with 10 mM caffeine; endogenous in cells; host or cells: primary hippocampal neurons, 14 d in culture. The note with it: 10 mM caffeine; hippocampal neurons treated with the adrenergic agonist alone. How it is done: FIG. 5A presents representative images of 14-d cultured hippocampal neurons stimulated with 10 mM caffeine. For each condition, the Ca^2+ levels are shown at baseline, during stimulation and at recovery. […] Individual values are shown with the mean±s.e.m. […] Scale bar, 10 μm. A reduction in caffeine-induced Ca^2+ release indicates a Ca^2+ depleted ER due to persistent RyR2-mediated Ca^2+ leak. Data are derived from biologically independent samples. All statistical tests were two sided.
To determine whether the activation of the adrenergic pathway indeed causes neuronal RyR2-mediated ER Ca^2+ leak, caffeine (10 mM), a well characterized RyR agonist, was used to assess RyR2 function specifically in hippocampal neurons without interference of other cell types such as glial cells or astrocytes.

Series [2] addresses RyR2 (Homo sapiens, UniProt Q92736). The note with it: previously identified binding site; cited from earlier work.
Series [3] deals with mouse model of HF (myocardial infarction, MI). The series can be described thus: open field test and elevated plus maze (EPM) test. It is filed as in vivo. The conditions noted are these: MI mice, treated. From the text:
FIGS. 2A-2G illustrate a mouse model of heart failure (myocardial infarction) that is associated with cognitive dysfunction. […] One-way analysis of variance (ANOVA) was used to compare the difference between the six groups in FIGS. 2B, 2C, 2E and 2F. Tukey's test was used for multiple comparisons; two-way ANOVA was used in FIG. 2D. […] All statistical tests were two sided with the data derived from biologically independent samples.
Because of the complexity of the clinical manifestation of HF patients, the mouse model of HF (myocardial infarction, MI) was used with reduced ejection fraction to evaluate the mechanisms of CD. The open field test and elevated plus maze (EPM) test were used to evaluate the behavioral phenotypes, and spontaneous exploratory activity in the mice. In the open field test, mice were placed at the center of a chamber and allowed to explore for 6 min. […] In the EPM test, MI mice spent […] time in the open arms of the EPM (FIG. 2B) compared to SHAM (0.22±0.04 versus 0.14±0.02; P<0.05). […] As a control, the effects of a Rycal®, ARM036, was studied.

For series [4] the test system is unchanged. The series can be described thus: novel object recognition test (hippocampal-dependent short-term memory). It is filed as in vivo. The conditions noted are these: MI mice, treated; MI 15%±4%, SHAM 48%±5%. An excerpt:
(§1) One-way analysis of variance (ANOVA) was used to compare the difference between the six groups in FIGS. 2B, 2C, 2E and 2F. Tukey's test was used for multiple comparisons; two-way ANOVA was used in FIG. 2D. […] All statistical tests were two sided with the data derived from biologically independent samples.
Next, a novel object recognition test was used to evaluate hippocampal-dependent short-term memory. (see Liu, X. et al. Role of leaky neuronal ryanodine receptors in stress-induced cognitive dysfunction. Cell 150, 1055-1067 (2012); and Bevins, R. A. & Besheer, J. Object recognition in rats and mice: a one-trial non-matching-to-sample learning task to study ‘recognition memory’. Nat. Protoc. 1, 1306-1311 (2006)).

Series [5] has the same test system. The series is described as follows: MWM test (long-term spatial learning and memory) with probe trial. The note with it: MI mice, treated; for latency to find and reach the hidden platform: day 4 training trials, MI 30±1 s, SHAM 21±2 s. It is filed as in vivo. How it is done: as §1
A MWM test was performed to assess hippocampal-dependent long-term spatial learning and memory.
A probe trial was performed on day 5 of the MWM test.

Series [6] concerns MI mice. The series can be described thus: long-term potentiation (fEPSPs) in hippocampal slices. It is filed as in vivo, mouse. The conditions noted are these: slices from treated MI mice; MI decreased LTP versus SHAM. How it is done: (§2) FIG. 4A is a schematic representation of a hippocampal brain slice for LTP experiments and the positioning of the stimulating and recording electrodes.
Field excitatory postsynaptic potentials (fEPSPs) were evaluated at the Schaffer collateral using a bipolar electrode placed at the CA3 and recording at the CA1 (FIG. 4A). […] Importantly, MI and treatment with the various compounds after MI had no effect on basal synaptic transmission determined by the input-output curves (I-O; P=0.5; FIG. 4D).

Series [7] relates to MI mice. The series is described as follows: hippocampal FDG metabolism by microPET. It is filed as in vivo, mouse. The conditions noted are these: treated MI mice; percentage of the FDG uptake in the SHAM mice (SHAM 100±3, MI 70±3).
Text: as §2
Thereafter, [^18F]fluorodeoxyglucose (FDG) with positron emission tomography (PET) was used to measure energy consumption in neurons, which reflects neuronal communication signals and the integrative local neuronal activity. Deteriorating brain glucose metabolism measured by FDG-PET has been used as a clinical marker for Alzheimer's disease diagnosis. Thus, hippocampal FDG metabolism was evaluated in the experimental groups (FIGS. 4E and 4F).

Another series concerns adrenergic pathway. The series can be described thus: hippocampal norepinephrine levels and PKA activity. The conditions noted are these: treated versus untreated MI mice. It is filed as in vivo, mouse. How it is done: The hippocampal levels of norepinephrine and PKA activity were measured.
A further series has as its system TGF-β pathway. The series can be described thus: immunoblots of TGF-β, phosphorylated SMAD3 and NOX2 binding to RyR2 in hippocampi. It is filed as in vivo, mouse. The note with it: hippocampi of treated MI mice. An excerpt: FIG. 12A includes immunoblots showing expressing levels of TGF-β, phosphorylated SMAD3, total SMAD3, and NOX2 binding to RyR2 in the hippocampi of controls (n=4) and HF patients (n=9). FIG. 12B includes bar graphs depicting the ratio of TGF-β expression normalized to GAPDH, phosphorylated SMAD3 to total SMAD3 and NOX2 binding to RyR2 (IP RyR2). The same quantity of proteins was loaded on two separate gels and blotted separately for SMAD3 and pSMAD3. Individual values are shown with mean±SEM (t-test * p<0.05, Controls vs. HF patients). […] FIG. 12D includes bar graphs depicting the ratio of TGF-β expression normalized to GAPDH, phosphorylated SMAD3 to total SMAD3 and NOX2 binding to RyR2 (IP RyR2). The same quantity of proteins was loaded on two separate gels and blotted separately for SMAD3 and pSMAD3. Individual values are shown with mean±SEM. […] All statistical tests were two-sided. Data are derived from biologically independent samples.
TGF-β has been implicated in CNS disorders including Alzheimer's disease.
For orientation: A western blot detects proteins with antibodies after separation by electrophoresis.

Series [8] is described as follows: blood-brain barrier crossing.

Here are results for four compounds from patent publication US20250255882A1, “TREATMENT OF CARDIAC CONDITION RELATED COGNITIVE DYSFUNCTION” (The Trustees of Columbia University in the City of New York, priority 2024, published 2025).

Sequence of RyR2 (Homo sapiens, UniProt Q92736) (Q92736 whole entry): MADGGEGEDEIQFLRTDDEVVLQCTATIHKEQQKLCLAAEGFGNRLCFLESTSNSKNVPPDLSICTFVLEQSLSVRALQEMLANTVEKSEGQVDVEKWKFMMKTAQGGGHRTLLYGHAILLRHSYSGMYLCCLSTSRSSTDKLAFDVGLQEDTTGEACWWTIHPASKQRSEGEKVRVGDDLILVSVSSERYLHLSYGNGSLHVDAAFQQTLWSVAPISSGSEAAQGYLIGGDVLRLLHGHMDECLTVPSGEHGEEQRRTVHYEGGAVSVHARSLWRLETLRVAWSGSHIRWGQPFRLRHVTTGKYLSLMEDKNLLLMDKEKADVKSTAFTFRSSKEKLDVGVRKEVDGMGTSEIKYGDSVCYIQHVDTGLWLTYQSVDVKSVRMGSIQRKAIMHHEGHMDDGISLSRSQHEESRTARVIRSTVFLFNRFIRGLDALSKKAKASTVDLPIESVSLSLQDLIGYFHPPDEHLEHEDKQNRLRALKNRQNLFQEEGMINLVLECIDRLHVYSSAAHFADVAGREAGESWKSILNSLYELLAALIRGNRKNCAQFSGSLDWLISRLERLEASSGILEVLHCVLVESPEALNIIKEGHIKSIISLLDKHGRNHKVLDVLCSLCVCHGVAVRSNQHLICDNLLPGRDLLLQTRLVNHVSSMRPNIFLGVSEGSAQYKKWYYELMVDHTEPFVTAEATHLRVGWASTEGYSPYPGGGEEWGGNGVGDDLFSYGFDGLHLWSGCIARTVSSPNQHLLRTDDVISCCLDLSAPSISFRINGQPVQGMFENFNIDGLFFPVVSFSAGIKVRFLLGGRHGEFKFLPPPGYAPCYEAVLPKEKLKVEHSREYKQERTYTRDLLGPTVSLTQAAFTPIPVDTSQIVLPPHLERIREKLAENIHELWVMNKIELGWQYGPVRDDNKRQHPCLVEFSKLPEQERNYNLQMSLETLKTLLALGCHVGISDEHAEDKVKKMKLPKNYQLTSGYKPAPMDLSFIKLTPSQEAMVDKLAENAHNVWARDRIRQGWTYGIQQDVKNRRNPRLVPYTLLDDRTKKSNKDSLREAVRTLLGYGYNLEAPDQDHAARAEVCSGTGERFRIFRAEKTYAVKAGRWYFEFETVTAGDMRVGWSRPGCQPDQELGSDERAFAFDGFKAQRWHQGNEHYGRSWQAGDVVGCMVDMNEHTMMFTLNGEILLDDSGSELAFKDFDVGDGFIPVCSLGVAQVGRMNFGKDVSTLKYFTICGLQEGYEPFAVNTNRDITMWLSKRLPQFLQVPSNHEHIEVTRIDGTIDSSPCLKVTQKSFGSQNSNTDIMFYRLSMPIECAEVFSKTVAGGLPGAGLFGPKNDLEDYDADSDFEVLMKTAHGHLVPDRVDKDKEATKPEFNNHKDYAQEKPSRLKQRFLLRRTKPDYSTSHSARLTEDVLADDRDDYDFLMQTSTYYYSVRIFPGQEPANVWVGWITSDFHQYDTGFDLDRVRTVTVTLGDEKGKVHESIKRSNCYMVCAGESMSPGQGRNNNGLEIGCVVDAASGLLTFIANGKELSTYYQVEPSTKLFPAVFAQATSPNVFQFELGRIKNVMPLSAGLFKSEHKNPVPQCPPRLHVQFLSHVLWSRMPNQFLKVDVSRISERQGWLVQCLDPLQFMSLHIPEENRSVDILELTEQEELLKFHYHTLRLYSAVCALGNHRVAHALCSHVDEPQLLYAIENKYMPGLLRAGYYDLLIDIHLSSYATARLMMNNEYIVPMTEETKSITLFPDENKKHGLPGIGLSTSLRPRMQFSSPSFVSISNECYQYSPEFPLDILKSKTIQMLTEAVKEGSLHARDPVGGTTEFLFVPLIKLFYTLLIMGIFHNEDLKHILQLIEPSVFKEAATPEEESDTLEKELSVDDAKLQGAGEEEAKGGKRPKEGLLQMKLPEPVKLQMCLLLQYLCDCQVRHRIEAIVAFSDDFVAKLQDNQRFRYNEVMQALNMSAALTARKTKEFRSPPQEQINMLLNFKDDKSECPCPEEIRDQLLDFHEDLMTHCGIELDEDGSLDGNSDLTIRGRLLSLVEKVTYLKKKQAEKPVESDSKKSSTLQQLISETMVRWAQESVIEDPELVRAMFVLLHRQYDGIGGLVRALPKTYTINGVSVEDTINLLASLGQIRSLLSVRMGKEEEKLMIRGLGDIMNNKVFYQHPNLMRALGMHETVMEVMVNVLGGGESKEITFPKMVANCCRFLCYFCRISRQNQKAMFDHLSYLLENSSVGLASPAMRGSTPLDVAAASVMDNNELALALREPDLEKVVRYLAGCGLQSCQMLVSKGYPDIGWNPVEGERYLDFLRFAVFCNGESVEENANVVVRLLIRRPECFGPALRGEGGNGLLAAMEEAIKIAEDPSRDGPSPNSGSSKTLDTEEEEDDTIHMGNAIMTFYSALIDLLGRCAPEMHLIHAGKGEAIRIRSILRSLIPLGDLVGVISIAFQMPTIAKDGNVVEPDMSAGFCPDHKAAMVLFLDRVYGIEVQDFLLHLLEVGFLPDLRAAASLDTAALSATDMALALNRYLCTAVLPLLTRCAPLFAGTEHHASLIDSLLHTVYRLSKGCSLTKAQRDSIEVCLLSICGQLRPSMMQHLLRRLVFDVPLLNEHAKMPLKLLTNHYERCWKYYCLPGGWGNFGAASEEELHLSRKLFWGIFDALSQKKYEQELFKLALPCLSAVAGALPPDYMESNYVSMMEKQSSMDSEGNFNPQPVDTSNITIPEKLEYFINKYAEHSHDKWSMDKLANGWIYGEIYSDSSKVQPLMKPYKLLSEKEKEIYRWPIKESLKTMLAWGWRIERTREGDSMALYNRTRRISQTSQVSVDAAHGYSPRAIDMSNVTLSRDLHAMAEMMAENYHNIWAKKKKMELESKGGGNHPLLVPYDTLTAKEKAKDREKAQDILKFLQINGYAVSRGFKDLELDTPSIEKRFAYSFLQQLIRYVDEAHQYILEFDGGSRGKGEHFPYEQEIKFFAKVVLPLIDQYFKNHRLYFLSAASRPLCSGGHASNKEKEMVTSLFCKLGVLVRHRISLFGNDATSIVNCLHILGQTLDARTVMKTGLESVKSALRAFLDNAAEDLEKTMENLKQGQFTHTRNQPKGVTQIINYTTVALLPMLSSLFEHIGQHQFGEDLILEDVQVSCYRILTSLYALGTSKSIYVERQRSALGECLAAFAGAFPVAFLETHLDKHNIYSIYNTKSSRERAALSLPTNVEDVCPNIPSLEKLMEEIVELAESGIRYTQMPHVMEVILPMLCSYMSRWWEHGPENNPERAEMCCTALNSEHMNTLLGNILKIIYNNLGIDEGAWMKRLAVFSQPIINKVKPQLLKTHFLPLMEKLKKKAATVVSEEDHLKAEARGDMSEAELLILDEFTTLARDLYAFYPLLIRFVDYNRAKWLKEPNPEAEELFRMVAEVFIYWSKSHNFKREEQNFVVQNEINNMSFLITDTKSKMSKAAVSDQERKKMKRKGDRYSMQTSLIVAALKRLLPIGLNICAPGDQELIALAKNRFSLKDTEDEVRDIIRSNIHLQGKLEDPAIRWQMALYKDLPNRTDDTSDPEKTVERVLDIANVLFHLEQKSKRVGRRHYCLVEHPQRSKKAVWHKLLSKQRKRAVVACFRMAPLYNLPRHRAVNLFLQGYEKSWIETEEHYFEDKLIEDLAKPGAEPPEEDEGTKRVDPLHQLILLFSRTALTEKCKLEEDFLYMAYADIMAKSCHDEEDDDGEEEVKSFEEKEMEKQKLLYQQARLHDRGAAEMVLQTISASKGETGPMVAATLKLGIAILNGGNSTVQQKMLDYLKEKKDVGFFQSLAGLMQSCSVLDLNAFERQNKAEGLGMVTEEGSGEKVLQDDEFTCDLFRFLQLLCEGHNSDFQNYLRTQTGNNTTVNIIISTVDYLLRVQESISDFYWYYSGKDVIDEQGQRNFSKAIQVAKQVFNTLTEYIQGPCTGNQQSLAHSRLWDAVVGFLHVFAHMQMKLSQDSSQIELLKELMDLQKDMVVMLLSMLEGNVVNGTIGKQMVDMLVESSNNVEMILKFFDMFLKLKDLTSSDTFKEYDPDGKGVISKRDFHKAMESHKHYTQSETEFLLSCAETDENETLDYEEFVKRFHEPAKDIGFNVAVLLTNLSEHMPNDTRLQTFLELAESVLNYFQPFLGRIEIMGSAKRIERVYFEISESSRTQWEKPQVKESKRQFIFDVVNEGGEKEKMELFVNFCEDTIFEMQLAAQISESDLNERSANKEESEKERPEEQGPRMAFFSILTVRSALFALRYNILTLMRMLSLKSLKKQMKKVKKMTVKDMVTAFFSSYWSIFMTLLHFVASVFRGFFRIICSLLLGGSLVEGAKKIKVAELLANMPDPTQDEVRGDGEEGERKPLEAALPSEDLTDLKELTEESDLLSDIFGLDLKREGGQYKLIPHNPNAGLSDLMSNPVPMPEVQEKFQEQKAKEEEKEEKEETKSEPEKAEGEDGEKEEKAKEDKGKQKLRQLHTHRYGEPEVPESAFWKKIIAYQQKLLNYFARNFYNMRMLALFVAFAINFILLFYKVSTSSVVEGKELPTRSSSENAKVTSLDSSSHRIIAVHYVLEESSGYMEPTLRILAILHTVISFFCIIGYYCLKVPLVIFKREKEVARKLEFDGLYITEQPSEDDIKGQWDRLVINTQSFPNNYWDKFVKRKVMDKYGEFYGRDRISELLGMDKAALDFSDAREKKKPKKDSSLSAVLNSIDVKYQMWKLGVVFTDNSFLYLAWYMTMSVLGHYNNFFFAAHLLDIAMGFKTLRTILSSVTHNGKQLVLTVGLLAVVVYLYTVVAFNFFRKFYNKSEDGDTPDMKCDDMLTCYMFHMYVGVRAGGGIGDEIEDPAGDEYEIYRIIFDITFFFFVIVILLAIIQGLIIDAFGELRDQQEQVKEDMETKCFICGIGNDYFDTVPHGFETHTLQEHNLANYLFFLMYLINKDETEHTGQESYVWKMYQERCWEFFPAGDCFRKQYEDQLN
Sequence of RyR2 (Homo sapiens, UniProt Q92736) (P68106 whole entry partner): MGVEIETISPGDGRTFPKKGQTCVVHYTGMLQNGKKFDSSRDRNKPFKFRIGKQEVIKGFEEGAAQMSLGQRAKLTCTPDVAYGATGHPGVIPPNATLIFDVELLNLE

With `CC(C)NCC(O)c1ccc(O)c(O)c1` (centres unmarked) [isoproterenol], on RyR2 [1], the “caffeine-induced Ca2+ release” value was “small Ca^2+ release”.
Turning to `COc1ccc2c(c1)CN(Cc1ccc(C(=O)O)cc1)CCS2` [Compound 1], the “effect on primed state of leaky channels” value at RyR2 [2] is “reverse the primed state of leaky channels toward a fully closed state”.
In the case of `COc1ccc2c(c1)CN(C(=O)C(=O)O)CCS2` [ARM036], in [3], the “abnormal behaviors in open field test (time center versus periphery) and EPM test (time open-arm versus closed-arm)” value was “no effect”. For the same compound, the discrimination index in series [4] was 15%±3%. The “latency to find and reach the hidden platform” value in [5] turned out to be 29 ± 3 s. Also, in the series on MI mice [6], the “LTP (hippocampal synaptic plasticity)” value is reported as “no effect”. Moreover, in the series on MI mice [7], the “hippocampal FDG metabolism” value was 80±8. In addition, in the series on adrenergic pathway, the PKA activity result is on record as “no effect” and the brain norepinephrine result is listed as “no effect”. In addition, in the series on TGF-β pathway, the “NOX2 binding to hippocampal RyR2” value is “no effect”, the TGF-β levels result is recorded as “no effect” and the “phosphorylation of SMAD3” value was “no effect”. For the same compound, in [8], the “crossing of the blood-brain barrier (BBB)” value is “does not cross the blood-brain barrier”.
For `COc1ccc2c(c1)CN(C)CCS2` [S107], in series [5] (60-s probe trial day 5, MI 2.4±0.3, SHAM 4.6±0.3), the target crossings turned out to be 4.2±0.3. Moreover, in [5] (60-s probe trial day 5, MI 17±1 s, SHAM 25±2 s), the “time spent in the target quadrant” value was 26 ± 2 s. Besides, in series [5], the “latency to find and reach the hidden platform” value came to 20 ± 2 s. Besides, the “hippocampal FDG metabolism” value in the series with MI mice [7] is given as 114±13. Besides, in the series with adrenergic pathway, the PKA activity entry was “no effect” and the brain norepinephrine result was “no effect”. Also, in [8], the “crossing of the blood-brain barrier (BBB)” value is “BBB-permeant”.
